Format in all cases: cell-based
Assay [1] relates to parental Ba/F3 cell line. Description: Growth inhibition (GI50) of the parental Ba/F3 cell line (not introduced with EGFR variants), Celltiter glo. Particulars: Mus musculus, BaF3, 72 h, parental Ba/F3 cells. The procedure, abridged:
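Parental Ba/F3 cells (100,000 cells/ml) were treated with 10-point, 4-fold compound dilutions (0.5% DMSO; top stock 2 mM) for 72 h at 37 °C, 5% CO2. Viability was read by CellTiter-Glo; GI50 is the concentration (μM) giving 50% growth inhibition.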

Assay [2] concerns Ba/F3 cells expressing EGFR-wt. Kind of assay: Growth inhibition (GI50) of Ba/F3 cells expressing EGFR-wt, Celltiter glo. Particulars: Mus musculus, BaF3, 72 h. The procedure, abridged:
(§1)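 Viable-cell luminescence (CellTiter-Glo) after 72 h compound exposure at 37 °C, 5% CO2 gave GI50 (μM, 50% growth inhibition). Compounds were 4-fold serial dilutions, 10 points, from a 2 mM stock, 0.5% DMSO, added 4 h after plating EGFR-variant Ba/F3 cells at 100,000 cells/ml.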

The test system of assay [3] is Ba/F3 cells expressing L858R/T790M/C797S (EGFR-LTC). Kind of assay: Growth inhibition (GI50) of Ba/F3 cells expressing L858R/T790M/C797S (EGFR-LTC), Celltiter glo. Particulars: Mus musculus, BaF3, 72 h. Summed up:
as §1

The subject of assay [4] is Ba/F3 cells expressing L858R/T790M (EGFR-LT). Kind of assay: Growth inhibition (GI50) of Ba/F3 cells expressing L858R/T790M (EGFR-LT), Celltiter glo. The note with it: Mus musculus, BaF3, 72 h. Here is the method: (§2) In this experimental example, a determination was made as to whether the compounds prepared in Examples 1-283 have the ability to inhibit the growth of Ba/F3 cells expressing EGFR-wt, del19/T790M/C797S (EGFR-DTC), L858R/T790M/C797S (EGFR-LTC), del19/T790M (EGFR-DT), and L858R/T790M (EGFR-LT) variants.
(§3) The parental Ba/F3 cell line is a population of cells that are not introduced with EGFR variants. Specifically, 100 μl of a cell line expressing each variant was plated in a 96-well plate at a density of 100,000 cells/ml. 10-point, 4-fold serial dilutions of each compound were prepared, starting at 2 mM. After 4 h, 0.5 μl of the compound (0.5% DMSO) was added, followed by incubation at 37° C. and 5% CO2 for 72 h. After incubation, the number of viable cells was measured using a Celltiter glo assay kit (Promega) and the GI50 of the compound was determined. The term “GI50” refers to the molar concentration (μM) of the compound required for 50% growth inhibition of cells.

In assay [5] the test system is Ba/F3 cells expressing del19/T790M (EGFR-DT). Kind of assay: Growth inhibition (GI50) of Ba/F3 cells expressing del19/T790M (EGFR-DT), Celltiter glo. The note with it: Mus musculus, BaF3, 72 h. Here is the method:
as §2, §3
On the technique in general: Cellular ATP, detected with luciferase, serves as a proxy for viable cell number.

In assay [6] the test system is Ba/F3 cells expressing del19/T790M/C797S (EGFR-DTC). Kind of assay: Growth inhibition (GI50) of Ba/F3 cells expressing del19/T790M/C797S (EGFR-DTC), Celltiter glo. Particulars: Mus musculus, BaF3, 72 h. Summed up:
as §1

Usually GI50 stands for the concentration at which growth is held to half of that of the control.

In the case of `COc1nc(N2CCC(O)CC2)ccc1Nc1ncc(Cl)c(Nc2ccc(F)cc2NS(C)(=O)=O)n1` [Example 21, N-(2-((5-chloro-((6-(4-hydroxypiperidin-1-yl)-2-methoxypyridin-3-yl)amino)pyrimidin-4-yl)amino)-5-fluorophenyl)methanesulfonamide], the 50% growth inhibitory concentration (GI50) was over 10000 nM in assay [1]; 2000 to 10000 nM in assay [2]; 500 to 2000 nM in assay [3]; 2000 to 10000 nM in assay [4]; 500 to 2000 nM in assay [5]; 500 to 2000 nM in assay [6].
In the case of `COc1nc(N2CCN(C3COC3)CC2)ccc1Nc1ncc(Cl)c(Nc2ccc(F)cc2NS(C)(=O)=O)n1` [Example 22, N-(2-((5-chloro-2-((2-methoxy-6-(4-(oxetan-3-yl)piperazin-1-yl)pyridin-3-yl)amino)pyrimidin-4-yl)amino)-5-fluorophenyl)methanesulfonamide], the GI50 fell in the range of 500 to 2000 nM in assay [1]; 2000 to 10000 nM in assay [2]; 500 to 2000 nM in assay [3]; 2000 to 10000 nM in assay [4]; 25 to 100 nM in assay [5]; 500 to 2000 nM in assay [6].
Turning to `COc1nc(N2CCC(N(C)C)C2)ccc1Nc1ncc(Cl)c(Nc2ccc(F)cc2NS(C)(=O)=O)n1` (stereo not drawn) [Example 23, N-(2-((5-chloro-2-((6-(3-(dimethylamino)pyrrolidin-1-yl)-2-methoxypyridin-3-yl)amino)pyrimidin-4-yl)amino)-5-fluorophenyl)methanesulfonamide], the GI50 lay in the range of 100 to 500 nM in assay [1]; 100 to 500 nM in assay [2]; 100 to 500 nM in assay [3]; 500 to 2000 nM in assay [4]; 100 to 500 nM in assay [5]; 100 to 500 nM in assay [6].
As to `COc1cc(N2CCC(N3CCCN(C)CC3)CC2)c(C)cc1Nc1ncc(Br)c(Nc2ccc(F)cc2NS(C)(=O)=O)n1` [Example 38, N-(2-((5-bromo-2-((2-methoxy-5-methyl-4-(4-(4-methyl-1,4-diazepan-1-yl)piperidin-1-yl)phenyl)amino)pyrimidin-4-yl)amino)-5-fluorophenyl)methanesulfonamide], the GI50 in assay [1] was 500 to 2000 nM; in assay [2], 100 to 500 nM; in assay [3], 25 to 100 nM; in assay [4], 100 to 500 nM; in assay [5], 25 to 100 nM; in assay [6], 25 to 100 nM.
With `COc1cc(N2CCC(N3CCCC(N(C)C)C3)CC2)c(C)cc1Nc1ncc(Br)c(Nc2ccc(F)cc2NS(C)(=O)=O)n1` (stereo not drawn) [Example 39, N-(2-((5-bromo-2-((4-(3-(dimethylamino)-[1,4′-bipiperidin]-1′-yl)-2-methoxy-5-methylphenyl)amino)pyrimidin-4-yl)amino)-5-fluorophenyl)methanesulfonamide], the GI50 in assay [1] lay in the range of 500 to 2000 nM; in assay [2] it was 100 to 500 nM; in assay [3] it was 1 to 25 nM; in assay [4], 25 to 100 nM; in assay [5], 100 to 500 nM; in assay [6], 1 to 25 nM.
As to `Cc1cc(Nc2ncc(Br)c(Nc3ccc(F)cc3NS(C)(=O)=O)n2)c(Cl)cc1N1CCC(N2CCCN(C)CC2)CC1` [Example 44, N-(2-((5-bromo-2-((2-chloro-5-methyl-4-(4-(4-methyl-1,4-diazepan-1-yl)piperidin-1-yl)phenyl)amino)pyrimidin-4-yl)amino)-5-fluorophenyl)methanesulfonamide], the GI50 lay within 500 to 2000 nM in assay [1]; 500 to 2000 nM in assay [2]; 25 to 100 nM in assay [3]; 100 to 500 nM in assay [4]; 25 to 100 nM in assay [5]; 25 to 100 nM in assay [6].
For the compound `Cc1cc(Nc2ncc(Br)c(Nc3ccc(F)cc3NS(C)(=O)=O)n2)c(Cl)cc1N1CCC(N2CCCC(N(C)C)C2)CC1` (stereo not drawn) [Example 45], the GI50 is 500 to 2000 nM in assay [1]; 500 to 2000 nM in assay [2]; 25 to 100 nM in assay [3]; 100 to 500 nM in assay [4]; 25 to 100 nM in assay [5]; 25 to 100 nM in assay [6].
`CNS(=O)(=O)c1ccccc1Nc1nc(Nc2ccc(N3CCN(CCO)CC3)nc2OC)ncc1Cl` [Example 56, 2-((5-chloro-2-((6-(4-(2-hydroxyethyl)piperazin-1-yl)-2-methoxypyridin-3-yl)amino)pyrimidin-4-yl)amino)-N-methylbenzenesulfonamide]: the GI50 in assay [1] lay in the range of 2000 to 10000 nM; in assay [2], 500 to 2000 nM; in assay [3], 500 to 2000 nM; in assay [4] it was 500 to 2000 nM; in assay [5], 100 to 500 nM; in assay [6], 500 to 2000 nM.
`CNS(=O)(=O)c1ccccc1Nc1nc(Nc2ccc(N3CCC(N(C)C)C3)nc2OC)ncc1Cl` (stereo not drawn) [Example 57, 2-((5-chloro-2-((6-(3-(dimethylamino)pyrrolidin-1-yl)-2-methoxypyridin-3-yl)amino)pyrimidin-4-yl)amino)-N-methylbenzenesulfonamide]: the concentration for 50% growth inhibition (GI50) in assay [1] fell in the range of 500 to 2000 nM; in assay [2] it was 500 to 2000 nM; in assay [3], 500 to 2000 nM; in assay [4], 500 to 2000 nM; in assay [5], 100 to 500 nM; in assay [6], 500 to 2000 nM.
For the compound `CNS(=O)(=O)c1ccccc1Nc1nc(Nc2cc(C)c(N3CCC(N4CCN(C)CC4)CC3)nc2OC)ncc1Cl` [Example 58, 2-((5-chloro-2-((2-methoxy-5-methyl-6-(4-(4-methylpiperazin-1-yl)piperidin-1-yl)pyridin-3-yl)amino)pyrimidin-4-yl)amino)-N-methylbenzenesulfonamide], the GI50 lay in the range of 100 to 500 nM in assay [1]; 100 to 500 nM in assay [2]; 100 to 500 nM in assay [3]; 500 to 2000 nM in assay [4]; 100 to 500 nM in assay [5]; 100 to 500 nM in assay [6].
With `CC(=O)Nc1ccc(Cl)cc1Nc1nc(Nc2ccc(N3CCC(N4CCN(C)CC4)CC3)c(F)c2)ncc1Cl` [Example 67, N-(4-chloro-2-((5-chloro-2-((3-fluoro-4-(4-(4-methylpiperazin-1-yl)piperidin-1-yl)phenyl)amino)pyrimidin-4-yl)amino)phenyl)acetamide], the GI50 in assay [1] was 2000 to 10000 nM; in assay [2] it was 100 to 500 nM; in assay [3] it was 25 to 100 nM; in assay [4], 100 to 500 nM; in assay [5], 100 to 500 nM; in assay [6], 25 to 100 nM.
On to `CC(=O)Nc1ccccc1Nc1nc(Nc2cnc(N3CCC(N4CCN(C)CC4)CC3)c(F)c2)ncc1Cl` [Example 70, N-(2-((5-chloro-2-((5-fluoro-6-(4-(4-methylpiperazin-1-yl)piperidin-1-yl)pyridin-3-yl)-amino)pyrimidin-4-yl)amino)phenyl)acetamide], for which the GI50 fell in the range of 500 to 2000 nM in assay [1]; 100 to 500 nM in assay [2]; 25 to 100 nM in assay [3]; 25 to 100 nM in assay [4]; 25 to 100 nM in assay [5]; 25 to 100 nM in assay [6].
For `COc1cc(N2CCC(N3CCN(C)CC3)CC2)c(C)cc1Nc1ncc(Cl)c(Nc2cc(Cl)ccc2NS(C)(=O)=O)n1` [Example 80, N-(4-chloro-2-((5-chloro-2-((2-methoxy-5-methyl-4-(4-(4-methylpiperazin-1-yl)piperidin-1-yl)phenyl)amino)pyrimidin-4-yl)amino)phenyl)methanesulfonamide], the GI50 in assay [1] fell in the range of 2000 to 10000 nM; in assay [2], 100 to 500 nM; in assay [3], 1 to 25 nM; in assay [4], 1 to 25 nM; in assay [5], 1 to 25 nM; in assay [6] it was 1 to 25 nM.
